# pIC50: −log10 of the molar value.
# Assays:
# [1] = test system: human A2.1 pancreatic cancer cells; test: MTS assay of A2.1 cell viability; format: cell-based
# Method: (§1) FIG. 5B is a graph of MTS assay (E490) of murine KPC and human A2.1 cells treated with crenolanib with various doses for 72 hours. Normalized values are expressed as means±SD form quadruple replicates.
# (§2) All cell lines were maintained in DMEM+10% FBS, at 37° C. in 5% CO2. Stable cell lines expressing shRNAs were generated by retroviral mediated gene transfer. Briefly, Phoenix or Ampho packaging cells (for murine or human cell lines, respectively) were transfected by the calcium phosphate method with vectors expressing NF-YA, NF-YB, p53, p73, PDGFRa, PDGFRb or Renilla-control shRNAs, and the generated viruses were harvested to infect KPC, KPflC, or a series of human pancreatic, breast, lung and colon cancer cell lines. Infected cells were selected with puromycin and experiments were carried out on derived cell populations. To generate cells stably expressing mutant p53, p73 or PDGFRb, KPflC cells were infected with MSCV-p53-R175H, -R273H, PDGFRb or pcDNA3-HA-p73α and selected in puromycin and G418 respectively to yield stable pools.
# [2] = test system: KPC cells; test: Propidium Iodide staining of KPC cells treated overnight; format: cell-based, mouse; conditions: KPC cells pretreated overnight
# [3] = biological target: T1, PDGFRb (Homo sapiens, UniProt P09619); test: Western blotting for phospho-PDGFRb in A2.1 cells; format: cell-based; conditions: 0.3 μM
# T1 construct: Western blotting for phospho-PDGFRb, PDGFRb, and Actin in human A2.1 cells; endogenous in cells; host or cells: human A2.1 pancreatic cancer cell line (mutant p53 155P)
# T1 sequence (P09619 33-1106): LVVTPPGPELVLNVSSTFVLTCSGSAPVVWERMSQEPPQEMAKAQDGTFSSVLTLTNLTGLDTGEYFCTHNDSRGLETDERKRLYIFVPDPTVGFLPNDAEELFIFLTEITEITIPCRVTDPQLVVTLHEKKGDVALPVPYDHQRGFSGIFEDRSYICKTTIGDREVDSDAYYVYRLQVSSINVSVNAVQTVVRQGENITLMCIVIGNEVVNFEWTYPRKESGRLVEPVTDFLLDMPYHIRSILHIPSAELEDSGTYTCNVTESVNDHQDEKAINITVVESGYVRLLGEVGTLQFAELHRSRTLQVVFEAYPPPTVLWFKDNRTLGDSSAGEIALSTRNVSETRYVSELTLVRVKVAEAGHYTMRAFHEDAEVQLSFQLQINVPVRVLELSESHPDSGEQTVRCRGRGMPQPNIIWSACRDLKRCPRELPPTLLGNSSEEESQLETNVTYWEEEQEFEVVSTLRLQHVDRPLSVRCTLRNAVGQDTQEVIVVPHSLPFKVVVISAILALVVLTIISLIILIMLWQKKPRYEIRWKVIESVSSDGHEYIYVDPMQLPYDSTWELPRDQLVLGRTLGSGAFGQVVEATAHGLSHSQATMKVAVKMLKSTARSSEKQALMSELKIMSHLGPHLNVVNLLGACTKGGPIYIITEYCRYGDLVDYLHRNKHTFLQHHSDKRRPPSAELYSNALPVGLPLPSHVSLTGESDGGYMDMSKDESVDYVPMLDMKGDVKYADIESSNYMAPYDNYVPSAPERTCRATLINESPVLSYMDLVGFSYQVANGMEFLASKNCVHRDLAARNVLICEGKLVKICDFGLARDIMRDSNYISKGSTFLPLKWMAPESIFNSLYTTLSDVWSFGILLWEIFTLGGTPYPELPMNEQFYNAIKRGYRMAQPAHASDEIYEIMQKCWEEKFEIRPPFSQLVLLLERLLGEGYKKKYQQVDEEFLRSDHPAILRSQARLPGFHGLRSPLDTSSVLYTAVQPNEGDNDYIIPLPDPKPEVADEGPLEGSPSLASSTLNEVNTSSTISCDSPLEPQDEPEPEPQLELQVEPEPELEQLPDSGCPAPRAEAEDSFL
# Description: FIG. 12D depicts Western blotting for phospho-PDGFRb, PDGFRb, and Actin in human A2.1 cells after treatment with DMSO or crenolanib at varying doses.
# [4] = test system: KPC cells; test: Three-dimensional collagen invasion assay, KPC cells
# Method: FIG. 5D (left panel) is a graph of quantification of invasion of murine KPC and human A2.1 treated with either DMSO or crenolanib at 300 nM. Values are means±SD of 9 replicates from one representative experiment.
# In brief, 24-well transwell inserts (Greiner bio-one) were lined with collagen type 1 (BD Biosciences), and cells were seeded on the inverted inserts. The lower chambers were filled with medium containing 0.5% FBS and upper chambers containing the collagen matrix were filled with medium containing 20% FBS and the chemoattractant HGF.
# Invasion assay inserts were fixed using 4% formaldehyde and stained using DAPI and Alexa568 phalloidin (Invitrogen) before confocal microscopy (Perkin Elmer Spinning Disk) was conducted. Images were analyzed using Imaris software.
# [5] = test system: murine KPC pancreatic cancer cells; test: MTS assay of KPC cell viability/proliferation; format: cell-based, mouse
# Method: as §1
# Normalized values are expressed as means±SD form quadruple replicates.
# as §2
# [6] = test system: A2.1 cells; test: Three-dimensional collagen invasion assay, A2.1 cells; format: cell-based, human; conditions: 300 nM
# Method: Images were analyzed using Imaris software.
# [7] = test system: KPflC cells; test: Lung colonization assay after tail vein injection of drug-pretreated KPflC cells; format: in vivo, mouse; conditions: same concentration as for KPC cells
# Method: FIG. 12G (left panel) depicts representative merged brightfield/GFP images of pulmonary lobes after tail vein injection of crenolanib- or DMSO-treated KPflC cells into mice. FIG. 12G (middle panel) depicts H&E stainings of representative sections of pulmonary lobes. FIG. 12G (right panel) is a graph of quantification of total number of lung metastatic nodules in individual mouse (at least six mice per each group). Data are represented as mean±SD.
# (§3) All animal experiments were performed in accordance with a protocol approved by the Memorial Sloan-Kettering Institutional Animal Care and Use Committee. For colonization studies, KPC cells (1×10^5) were resuspended in 200 μl PBS and injected intravenously into the tail vein of 8 week-old female athymic nude mice. Lungs were harvested 7 days post injection and analyzed for colonization by GFP positivity (Nikon SMZ1500) and histology.
# [8] = biological target: T2, PDGFRb (Mus musculus, UniProt P05622); test: PDGFRb phosphorylation in KPC cells (immunoprecipitation, phospho-Tyrosine western blot); format: cell-based
# T2 construct: endogenous in cells; host or cells: murine KPC pancreatic cancer cell line (Kras G12D, p53 R172H, Pdx1-Cre)
# T2 sequence (P05622 32-1098): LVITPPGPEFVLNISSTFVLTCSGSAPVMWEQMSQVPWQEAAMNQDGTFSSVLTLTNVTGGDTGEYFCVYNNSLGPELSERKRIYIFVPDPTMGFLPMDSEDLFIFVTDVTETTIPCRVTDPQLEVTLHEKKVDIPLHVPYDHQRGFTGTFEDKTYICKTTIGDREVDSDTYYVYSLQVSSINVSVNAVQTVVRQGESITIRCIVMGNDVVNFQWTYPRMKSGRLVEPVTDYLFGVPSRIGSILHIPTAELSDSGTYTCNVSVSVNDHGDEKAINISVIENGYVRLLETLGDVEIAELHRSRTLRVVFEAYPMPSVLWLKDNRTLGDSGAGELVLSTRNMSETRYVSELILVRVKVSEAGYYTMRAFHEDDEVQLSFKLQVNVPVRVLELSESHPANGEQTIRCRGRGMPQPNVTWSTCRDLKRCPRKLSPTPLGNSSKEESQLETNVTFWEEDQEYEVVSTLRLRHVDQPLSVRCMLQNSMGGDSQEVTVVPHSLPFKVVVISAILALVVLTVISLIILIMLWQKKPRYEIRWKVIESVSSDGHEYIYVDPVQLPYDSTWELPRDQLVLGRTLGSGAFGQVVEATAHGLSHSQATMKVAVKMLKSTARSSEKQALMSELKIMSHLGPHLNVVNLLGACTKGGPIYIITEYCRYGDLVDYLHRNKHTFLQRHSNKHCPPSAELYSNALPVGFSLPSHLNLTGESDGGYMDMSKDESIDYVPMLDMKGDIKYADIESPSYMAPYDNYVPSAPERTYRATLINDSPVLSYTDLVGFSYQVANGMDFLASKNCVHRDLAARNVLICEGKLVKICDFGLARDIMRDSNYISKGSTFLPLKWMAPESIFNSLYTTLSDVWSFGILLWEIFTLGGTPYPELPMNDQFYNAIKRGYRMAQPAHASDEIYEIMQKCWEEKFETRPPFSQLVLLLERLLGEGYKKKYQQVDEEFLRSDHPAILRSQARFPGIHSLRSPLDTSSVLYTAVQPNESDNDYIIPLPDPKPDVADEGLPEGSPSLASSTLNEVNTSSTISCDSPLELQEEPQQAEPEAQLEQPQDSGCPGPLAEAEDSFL
# Method: FIG. 5C depicts immunoprecipitation of PDGFRb from KPC cells starved for 12 hours, treated with either increasing doses of crenolanib or DMSO for 4 hours and subsequently stimulated with 50 ng/ml of PDGF-BB recombinant protein. Protein levels of PDGFRb, phospho-Tyrosine and Tubulin were determined by western blotting.
# Protein levels of PDGFRb, phospho-Tyrosine and Tubulin were determined by western blotting.
# FIG. 12E depicts immunoprecipitation of PDGFRb from KPC cells treated with DMSO or crenolanib (300 nM) for different time periods. The input protein levels for PDGFRb, phospho-Tyrosine, and Actin and those present in immunoprecipitates for phospho-Tyrosine were determined by western blotting.
# To measure levels of endogenously phosphorylated PDGFRb, KPC cells were treated with the drug as described and harvested in phospho-lysis buffer (50 mM Tris pH 7.5, 1% Tween-20, 200 mM NaCl, 0.2% NP-40, phosphatase inhibitors [2.5 mM Sodium pyrophosphate, 1 mM β-Glycerophosphate, 1 mM Na3VO4], and protease inhibitors [Roche]).
# [9] = test system: KPC cells; test: Lung colonization assay after tail vein injection of drug-pretreated KPC cells; format: in vivo, mouse
# Description: FIG. 5E (left panel) are representative merged brightfield/GFP imaged of whole lung as well as H&E stains of representative sections of pulmonary lobes after tail vein injection of crenolanib- or DMSO-treated KPC cells into mice. FIG. 5E (right panel) is a graph of quantification of total number of lung metastatic nodules in individual mouse (at least six mice per each group). Data are represented as mean±SD.
# FIG. 6B (left panel) are representative merged brightfield/GFP images of whole lung. FIG. 6B (middle panel) are H&E stainings of representative sections of pulmonary lobes. […] FIG. 6B (right panel) is a graph of quantification of total number of lung metastatic nodules in individual mouse (at least six mice per each group. Data are represented as mean±SD.
# as §3
# [10] = test system: KPC mice; test: Treatment of KPC mice (PDAC mouse model): tumor, survival and metastasis; format: in vivo
# Description: (§4) FIG. 6D is a graph of quantification of the number of mice with metastatic disease at the time of death. Values are percentages of the total number of mice in each cohort. Colored columns represent mice with metastases (METS) and white columns represent disease-free (DF) animals.
# as §4, with “FIG. 6E is a” for “FIG. 6D is a”, “mice with lung, lymph nodes or liver metastatic disease” for “mice with metastatic disease”
# Strains were maintained on mixed background. […] Organs and tumors were removed and fixed in 10% buffered formalin and tumor and metastatic burden was assessed by gross pathology and histology.
# [11] = biological target: T2, PDGFRb; test: phospho-PDGFRb in pancreatic tumors of treated KPC mice (immunofluorescence); format: in vivo; conditions: 50 mg/kg oral gavage twice daily
# Method: DAPI, blue; CK8, red and p-PDGFRb, green. […] 15 images were analyzed per tumor (n=7). Tissues were fixed overnight in formalin, embedded in paraffin, and cut into 5-μm thick sections. Sections were subjected to hematoxylin and eosin staining, and immunohistochemical and immunofluorescent staining following standard protocols. The following primary antibodies were used: mouse anti-GFP (Cell Signaling), rabbit anti-p-PDGFR-β ([MUT]) (Santa Cruz Biotechnology) and rat anti-CK8 (DSHB). […] Images were acquired using a Zeiss Axio Imager D1 scope.
# [12] = 50 mg/kg oral gavage twice daily
smiles,measurement,setting,value
"CC1(COc2ccc3c(c2)ncn3-c2ccc3cccc(N4CCC(N)CC4)c3n2)COC1 [crenolanib, Crenolanib]",toxicity,"[1]; A2.1 cells, 0.3 μM",no toxicity was observed
same,pIC50,"[1]; Pancreatic cancer cell, human A2.1 cells, MTS assay, 72 hours, read-out: IC50, inhibiting the viability",5.07
same,viability of the injected cell population,[2],no effect on the viability
same,"inhibition of PDGFRb activity, as measured by phospho-PDGFRb",[3],Strong inhibition
same,invasion relative to cells treated with DMSO,[4]; 300 nM,substantially reduced invasion
same,toxicity,"[5]; KPC cells, 0.3 μM",no toxicity was observed
same,pIC50,"[5]; Mus musculus, Pancreatic cancer cell, murine KPC cells, MTS assay, 72 hours, read-out: IC50, inhibiting the viability",4.88
same,invasion relative to cells treated with DMSO,[6],substantially reduced invasion
same,metastatic potential in lung colonization assay,[7],did not reduce the metastatic potential
same,"inhibition of PDGFRb activity, as measured by phospho-PDGFRb",[8]; 0.3 μM,Strong inhibition
same,time of drug treatment to strong target inhibition,"[8]; time course, 300 nM",≤ 10 min
same,lung nodules compared to controls pre-treated with DMSO,"[9]; KPC cells pretreated overnight, injected intravenously",significantly fewer lung nodules
Cc1ccc(NC(=O)c2ccc(CN3CCN(C)CC3)cc2)cc1Nc1nccc(-c2cccnc2)n1 [imatinib],invasive potential in vitro,[4]; 3 μM vs DMSO,significantly reduced the invasive potential
same,"anti-metastatic effect across organs (liver, lymph nodes and lung)",[10]; [12],anti-metastatic effect was observed
same,occurrence of metastasis,[10]; [12],striking reduction in the occurrence of metastasis
same,overall survival,[10]; 50 mg/kg oral gavage twice daily from 8 weeks of age,no impact
same,incidence of metastasis,"[10]; 50 mg/kg oral gavage twice daily, GFP fluorescence and histopathology, 92% in vehicle-treated animals",15%
same,levels of phospho-PDGFRb in the tumor cells of primary tumors,[11],reduced levels of phospho-PDGFRb
same,PDGFRb tyrosine phosphorylation,[8]; 3 uM,strongly reduced PDGFRb tyrosine phosphorylation
same,potential to colonize the lungs of recipient athymic mice,[9]; pre-treatment of KPC cells,decreased their potential to colonize the lungs
